Test results as given in patent publication US20240024403A1, “Compositions and Methods for Managing Weight” (Unigen, Inc., priority 2012, published 2024).

How the values were obtained:
ghrelin = experiment: Plasma active ghrelin level in DIO mice (ELISA); type: in vivo
Description: (§1) Obese mice were treated with various three component compositions to test the anti-obesity and appetite effects of such compositions. Three component Composition 1 (Magnolia:Morus:Yerba Mate) produced according to the Example 38, three component Composition 2 (Magnolia:Morus:Mutamba) produced according to the Example 42, three component Composition 3 (Morus: Rosemary:Yerba Mate) produced according to the Example 39, and three component Composition 9 (Morus:Rosemary:Areca) produced according to the Example 41, were each separately administrated orally to DIO mice as described in the Example 48. The high fat diet (HFD) mice were divided into multiple treatment groups with a total of 10 animals per group. The mice were treated with one of the following: Composition 1 (1300 mg/kg/day), Composition 2 (1300 mg/kg/day), Composition 3 (1700 mg/kg/day), or Composition 9 (1700 mg/kg/day). Control groups included a normal diet group given vehicle only (ND, negative control), a high fat diet group given vehicle only (HFD, negative control), an orlistat group (ORI, 40 mg/kg, 2 times/day, positive control), and a sibutramine group (10 mg/kg, 1 time/day, positive control). Body weight and feed intake were measured daily for 2 weeks after treatment and then twice a week until the end of the 7 week study. At week 2 and week 7 after treatment, mice were fasted for 16 hours and then five animals were examined to measure plasma concentrations of leptin and ghrelin. Leptin and ghrelin levels were measured by using commercial ELISA kits specific for leptin or ghrelin (Millipore Co., Billerica, MA) according to the manufacturer's instructions. Measurements were taken using a microplate reader (Victor™ X3, PerkinElmer Inc., USA) and analyzed with PerkinElmer 2030 workstation computer software.

CCK peptide = CCK peptide levels in DIO mice (CCK ELISA); type: in vivo; conditions: mice on high fat diet; after 7 weeks of administering; % ± SD
Description: Therefore, the effect on CCK peptide levels in mice from treatment with Composition 2 (Magnolia:Morus:Mutamba), produced according to the Example 42, or Composition 3 (Morus:Rosemary:Yerba Mate), produced according to the Example 39, was examined to determine the extent to which weight gain and/or appetite were affected through this peptide hormone pathway. Briefly, CCK peptide levels were measured after 7 weeks of administering Compositions […] and 3 to mice on a high fat diet as described in Example 48. Negative controls include mice on a normal diet (NC) and mice on a high fat diet (HFD), each group administered vehicle only. The positive controls were orlistat and sibutrimine. CCK levels were detected using a CCK ELISA assay kit according to the manufacturer's instructions (Abnova, Taipei City, Tiawan). Measurements were performed using microplate reader Victor™ X3 (PerkinElmer Inc., Waltham, MA) and computer software on the PerkinElmer 2030 workstation.

[1] = High fat diet induced obesity (DIO) rat model; type: in vivo, Spraue-Dawley rats; conditions: for Total Body Weight: in g (unit assumed)
Description: Male Spraue-Dawley rats, age 4-6 weeks (OrientBio, Inc.; Seongnam, Korea) were housed individually in Polycarbonate cages in a room with a 12 hr:12 hr light-dark cycle and an ambient temperature of 24° C. All the rats were fed a commercial chow diet for 1 week after arrival in the animal facility. Rats were then divided into normal and obesity groups and fed with normal diet (ND) and high fat diets (HFD) respectively. The HFD group was divided into multiple treatment groups: a high fat diet vehicle group (HFD), an orlistat (purchased as OTC drug Alli®) positive control treatment group (ORI, 80 mg/kg of animal weight, 2 times/day). In some examples, sibutramine was used as a positive control (SIB, 3 mg/kg for rat studies and […] for mice studies).
Body weight was measured once or twice per week and feed intake was measured twice per week. Body weight gain was determined for each study group by measurement of the body weight difference for each study group between each successive week of the study. At the end of the experimental period, following a 12-h fasting period, the animals were anesthetized with ether, and blood was drawn from the abdominal vein. Liver and kidney and adipose tissues (epididymal, retroperitoneal, perirenal adipose tissues) were removed from each animal, rinsed with physiological saline, and weighted. Serum concentrations of glucose, total cholesterol and LDL-cholesterol were determined using automatic analyzer (INTEGRA 400, Roche, Germany). Statistical significance of test results was performed by Student's t-test.

leptin = experiment: Plasma leptin level in DIO mice (ELISA); type: in vivo
Description: as §1

[2] = DIO mice plasma, 2-week treatment
[3] = DIO mice plasma, 7-week treatment
[4] = SIB 3 mg/kg, DIO rats, blood at end of study
[5] = SIB 3 mg/kg, rats fed a high fat diet
[6] = SIB 3 mg/kg, rats fed a high fat diet, 42 days

CC(C)CC(N(C)C)C1(c2ccc(Cl)cc2)CCC1 (centres unmarked) [SIB, sibutramine]
Active Ghrelin (pg/ml) 2-week (ghrelin; [2]): 1001.3 pg/mL
Active Ghrelin (pg/ml) 7-week (ghrelin; [3]): 600.1 pg/mL
active ghrelin level vs HFD group (ghrelin; week 2 and week 7, orlistat 40 mg/kg 2 times/day, sibutramine 10 mg/kg 1 time/day): no effect on active ghrelin levels at either week 2 or week 7
% CCK binding (CCK peptide): 12.3 ± 1.6%
Fasting Glucose [1, 4]: 136.00 mg/dL
T-chol [1, 4]: 106.60 mg/dL
Triglyceride [1, 4]: 41.10 mg/dL
Fat Deposit Weight: Epididymal Fat [1, 5]: 6.698
Fat Deposit Weight: Perirenal Fat [1, 5]: 1.562
Fat Deposit Weight: Retroperitoneal Fat [1, 5]: 3.190
Fat Deposit Weight: Total Fat [1, 5]: 11.450
Food Efficiency Ratio (FER) [1, 6]: 0.155
Food Intake [1, 6]: 13.880 g/day
Weight Gain [1, 6]: 2.160 g/day
Total Body Weight ([1]; day 0, SIB 3 mg/kg, DIO rats): 364.15
Total Body Weight ([1]; day 1, SIB 3 mg/kg, DIO rats): 368.06
Weight Gain ([1]; day 1 vs day 0, SIB 3 mg/kg, DIO rats): 3.91
Total Body Weight ([1]; day 2, SIB 3 mg/kg, DIO rats): 356.78
Weight Gain ([1]; day 2 vs day 0, SIB 3 mg/kg, DIO rats): −7.37
Total Body Weight ([1]; day 3, SIB 3 mg/kg, DIO rats): 357.21
Weight Gain ([1]; day 3 vs day 0, SIB 3 mg/kg, DIO rats): −6.94
Total Body Weight ([1]; day 4, SIB 3 mg/kg, DIO rats): 358.78
Weight Gain ([1]; day 4 vs day 0, SIB 3 mg/kg, DIO rats): −5.37
Total Body Weight ([1]; day 7, SIB 3 mg/kg, DIO rats): 368.11
Weight Gain ([1]; day 7 vs day 0, SIB 3 mg/kg, DIO rats): 3.96
Total Body Weight ([1]; day 10, SIB 3 mg/kg, DIO rats): 377.69
Weight Gain ([1]; day 10 vs day 0, SIB 3 mg/kg, DIO rats): 13.54
Total Body Weight ([1]; day 14, SIB 3 mg/kg, DIO rats): 388.70
Weight Gain ([1]; day 14 vs day 0, SIB 3 mg/kg, DIO rats): 24.55
Total Body Weight ([1]; day 18, SIB 3 mg/kg, DIO rats): 395.38
Weight Gain ([1]; day 18 vs day 0, SIB 3 mg/kg, DIO rats): 31.23
Total Body Weight ([1]; day 21, SIB 3 mg/kg, DIO rats): 407.06
Weight Gain ([1]; day 21 vs day 0, SIB 3 mg/kg, DIO rats): 42.91
Total Body Weight ([1]; day 24, SIB 3 mg/kg, DIO rats): 414.91
Weight Gain ([1]; day 24 vs day 0, SIB 3 mg/kg, DIO rats): 50.75
Total Body Weight ([1]; day 28, SIB 3 mg/kg, DIO rats): 425.99
Weight Gain ([1]; day 28 vs day 0, SIB 3 mg/kg, DIO rats): 61.84
Total Body Weight ([1]; day 31, SIB 3 mg/kg, DIO rats): 432.32
Weight Gain ([1]; day 31 vs day 0, SIB 3 mg/kg, DIO rats): 68.17
Total Body Weight ([1]; day 35, SIB 3 mg/kg, DIO rats): 442.55
Weight Gain ([1]; day 35 vs day 0, SIB 3 mg/kg, DIO rats): 78.40
Total Body Weight ([1]; day 38, SIB 3 mg/kg, DIO rats): 447.66
Weight Gain ([1]; day 38 vs day 0, SIB 3 mg/kg, DIO rats): 83.51
Total Body Weight ([1]; day 42, SIB 3 mg/kg, DIO rats): 454.96
Weight Gain ([1]; day 42 vs day 0, SIB 3 mg/kg, DIO rats): 90.81
blood biochemistry parameters vs HFD group ([1]; sibutramine 3 mg/kg): no statistically significant changes compared to the HFD group for any of the measured endpoints
body weight gain vs HFD group ([1]; sibutramine 3 mg/kg): statistically significant decreases in body weight gains from day 2 to completion of the study on day 42
organ and fat pad weights vs HFD group ([1]; sibutramine 3 mg/kg): statistically significant decreases in all categories of fat measurement
total body weight vs HFD group ([1]; sibutramine 3 mg/kg): statistically significant reduction in body weight at day 2 through the remainder of the study (day 42)
weight gain per day, food intake per day, food efficiency ratio (FER) vs HFD group ([1]; sibutramine 3 mg/kg): statically lower values than the HFD group for Weight Gain per day, Food Intake per day, and Food Efficiency Ratio
Leptin (ng/ml) 2-week (leptin; [2]): 17.0 ± 0.43 ng/mL
Leptin (ng/ml) 7-week (leptin; [3]): 20.4 ± 0.00 ng/mL
plasma leptin level vs HFD group (leptin; week 2 and week 7, Composition 2 1300 mg/kg/day, orlistat 40 mg/kg 2 times/day, sibutramine 10 mg/kg 1 time/day): somewhat reduced leptin level after 2 weeks of treatment
